Measured values as given in patent publication US20100298141A1, “SUBSTITUTED PYRIDINE N-OXIDE HERBICIDES” (E. I. DU PONT DE NEMOURS AND COMPANY, priority 2007, published 2010).

How the values were obtained:
Assay in all cases: Test A pre-/postemergence greenhouse test
barnyardgrass = type: in vivo, Echinochloa crus-galli; conditions: for Plant response rating, Barnyardgrass: 0 to 100 scale where 0 is no effect and 100 is complete control; for Barnyardgrass plant response rating: 0 to 100 scale
Excerpt: (§1) Seeds of barnyardgrass (Echinochloa crus-galli), crabgrass (Digitaria sanguinalis), giant foxtail (Setaria faberi), morningglory (Ipomoea spp.), redroot pigweed (Amaranthus retroflexus), velvetleaf (Abutilon theophrasti), wheat (Triticum aestivum), and corn (Zea mays) were planted into a blend of loam soil and sand and treated preemergence with a directed soil spray using test compounds formulated in a non-phytotoxic solvent mixture which included a surfactant. At the same time these species were also treated with postemergence applications of test compounds formulated in the same manner. Plants ranged in height from two to ten cm and were in the one- to two-leaf stage for the postemergence treatment. Treated plants and untreated controls were maintained in a greenhouse for approximately ten days, after which time all treated plants were compared to untreated controls and visually evaluated for injury. […] A dash (-) response means no test results.

crabgrass = type: in vivo, Digitaria sanguinalis; conditions: for Plant response rating, Crabgrass, Large: 0 to 100 scale where 0 is no effect and 100 is complete control; for Crabgrass, Large plant response rating: 0 to 100 scale
Excerpt: as §1

giant foxtail = type: in vivo, Setaria faberi; conditions: for Plant response rating, Foxtail, Giant: 0 to 100 scale where 0 is no effect and 100 is complete control; for Foxtail, Giant plant response rating: 0 to 100 scale
Excerpt: as §1

morningglory = type: in vivo, Ipomoea spp.; conditions: for Plant response rating, Morningglory: 0 to 100 scale where 0 is no effect and 100 is complete control; for Morningglory plant response rating: 0 to 100 scale
Excerpt: as §1

redroot pigweed = type: in vivo, Amaranthus retroflexus; conditions: for Plant response rating, Pigweed: 0 to 100 scale where 0 is no effect and 100 is complete control; for Pigweed plant response rating: 0 to 100 scale
Excerpt: as §1

velvetleaf = type: in vivo, Abutilon theophrasti; conditions: for Plant response rating, Velvetleaf: 0 to 100 scale where 0 is no effect and 100 is complete control; for Velvetleaf plant response rating: 0 to 100 scale
Excerpt: as §1

wheat = type: in vivo, Triticum aestivum; conditions: for Plant response rating, Wheat: 0 to 100 scale where 0 is no effect and 100 is complete control; for Wheat plant response rating: 0 to 100 scale
Excerpt: as §1

corn = type: in vivo, Zea mays; conditions: for Plant response rating, Corn: 0 to 100 scale where 0 is no effect and 100 is complete control; for Corn plant response rating: 0 to 100 scale
Excerpt: as §1

[1] = Postemergence, 500 g ai/ha, 0 is no effect, 100 is complete control
[2] = Preemergence, 125 g ai/ha, 0 no effect, 100 complete control
[3] = Preemergence, 500 g ai/ha, 0 no effect, 100 complete control

Cn1nc(C(F)(F)F)c(C[S+]([O-])c2cc(C3CC3)cc[n+]2[O-])c1OCC(F)(F)F (stereo not drawn) [Compound 121]
50: Plant response rating, Barnyardgrass (barnyardgrass; Postemergence, 125 g ai/ha) | Plant response rating, Foxtail, Giant (giant foxtail; Postemergence, 125 g ai/ha) | Wheat plant response rating (wheat; [1])
90: Morningglory plant response rating (morningglory; [3]) | Corn plant response rating (corn; [3])
80: Crabgrass, Large plant response rating (crabgrass; [1]) | Foxtail, Giant plant response rating (giant foxtail; [1]) | Velvetleaf plant response rating (velvetleaf; [3])
70: Barnyardgrass plant response rating (barnyardgrass; [1]) | Pigweed plant response rating (redroot pigweed; [1]) | Velvetleaf plant response rating (velvetleaf; [1])
40: Plant response rating, Morningglory (morningglory; Postemergence, 125 g ai/ha) | Morningglory plant response rating (morningglory; [2]) | Plant response rating, Velvetleaf (velvetleaf; Postemergence, 125 g ai/ha)
30: Plant response rating, Crabgrass, Large (crabgrass; Postemergence, 125 g ai/ha) | Plant response rating, Wheat (wheat; Postemergence, 125 g ai/ha)
20: Plant response rating, Corn (corn; Postemergence, 125 g ai/ha)
60: Morningglory plant response rating (morningglory; [1]) | Plant response rating, Pigweed (redroot pigweed; Postemergence, 125 g ai/ha) | Velvetleaf plant response rating (velvetleaf; [2]) | Wheat plant response rating (wheat; [2]) | Corn plant response rating (corn; [1]) | Corn plant response rating (corn; [2])
100: Barnyardgrass plant response rating (barnyardgrass; [2]) | Barnyardgrass plant response rating (barnyardgrass; [3]) | Crabgrass, Large plant response rating (crabgrass; [2]) | Crabgrass, Large plant response rating (crabgrass; [3]) | Foxtail, Giant plant response rating (giant foxtail; [2]) | Foxtail, Giant plant response rating (giant foxtail; [3]) | Pigweed plant response rating (redroot pigweed; [2]) | Pigweed plant response rating (redroot pigweed; [3]) | Wheat plant response rating (wheat; [3])

CCCc1cc[n+]([O-])c([S+]([O-])Cc2c(C(F)(F)F)nn(C)c2OC(F)F)c1 (stereo not drawn) [Compound 116]
80: Barnyardgrass plant response rating (barnyardgrass; [1]) | Crabgrass, Large plant response rating (crabgrass; [1]) | Plant response rating, Foxtail, Giant (giant foxtail; Postemergence, 125 g ai/ha) | Velvetleaf plant response rating (velvetleaf; [1]) | Wheat plant response rating (wheat; [3])
90: Crabgrass, Large plant response rating (crabgrass; [2]) | Foxtail, Giant plant response rating (giant foxtail; [1]) | Morningglory plant response rating (morningglory; [1]) | Pigweed plant response rating (redroot pigweed; [1]) | Velvetleaf plant response rating (velvetleaf; [3]) | Corn plant response rating (corn; [1]) | Corn plant response rating (corn; [3])
60: Plant response rating, Morningglory (morningglory; Postemergence, 125 g ai/ha) | Wheat plant response rating (wheat; [1]) | Plant response rating, Corn (corn; Postemergence, 125 g ai/ha) | Corn plant response rating (corn; [2])
50: Plant response rating, Velvetleaf (velvetleaf; Postemergence, 125 g ai/ha) | Plant response rating, Wheat (wheat; Postemergence, 125 g ai/ha) | Wheat plant response rating (wheat; [2])
0: Velvetleaf plant response rating (velvetleaf; [2])
70: Plant response rating, Barnyardgrass (barnyardgrass; Postemergence, 125 g ai/ha) | Barnyardgrass plant response rating (barnyardgrass; [2]) | Plant response rating, Crabgrass, Large (crabgrass; Postemergence, 125 g ai/ha) | Plant response rating, Pigweed (redroot pigweed; Postemergence, 125 g ai/ha)
100: Barnyardgrass plant response rating (barnyardgrass; [3]) | Crabgrass, Large plant response rating (crabgrass; [3]) | Foxtail, Giant plant response rating (giant foxtail; [2]) | Foxtail, Giant plant response rating (giant foxtail; [3]) | Morningglory plant response rating (morningglory; [2]) | Morningglory plant response rating (morningglory; [3]) | Pigweed plant response rating (redroot pigweed; [2]) | Pigweed plant response rating (redroot pigweed; [3])

Cn1nc(C(F)(F)F)c(CS(=O)(=O)c2cc(C3CC3)cc[n+]2[O-])c1OC(F)F [Compound 118]
90: Crabgrass, Large plant response rating (crabgrass; [2]) | Foxtail, Giant plant response rating (giant foxtail; [2]) | Velvetleaf plant response rating (velvetleaf; [3])
40: Plant response rating, Crabgrass, Large (crabgrass; Postemergence, 125 g ai/ha) | Plant response rating, Foxtail, Giant (giant foxtail; Postemergence, 125 g ai/ha) | Morningglory plant response rating (morningglory; [2]) | Plant response rating, Velvetleaf (velvetleaf; Postemergence, 125 g ai/ha) | Plant response rating, Wheat (wheat; Postemergence, 125 g ai/ha) | Wheat plant response rating (wheat; [2])
60: Morningglory plant response rating (morningglory; [1]) | Velvetleaf plant response rating (velvetleaf; [1]) | Wheat plant response rating (wheat; [1]) | Wheat plant response rating (wheat; [3])
70: Barnyardgrass plant response rating (barnyardgrass; [1]) | Barnyardgrass plant response rating (barnyardgrass; [2])
0: Plant response rating, Corn (corn; Postemergence, 125 g ai/ha) | Corn plant response rating (corn; [1]) | Corn plant response rating (corn; [2])
100: Barnyardgrass plant response rating (barnyardgrass; [3]) | Crabgrass, Large plant response rating (crabgrass; [3]) | Foxtail, Giant plant response rating (giant foxtail; [3]) | Morningglory plant response rating (morningglory; [3]) | Pigweed plant response rating (redroot pigweed; [2]) | Pigweed plant response rating (redroot pigweed; [3])
80: Crabgrass, Large plant response rating (crabgrass; [1]) | Foxtail, Giant plant response rating (giant foxtail; [1]) | Pigweed plant response rating (redroot pigweed; [1])
20: Plant response rating, Morningglory (morningglory; Postemergence, 125 g ai/ha) | Velvetleaf plant response rating (velvetleaf; [2]) | Corn plant response rating (corn; [3])
50: Plant response rating, Barnyardgrass (barnyardgrass; Postemergence, 125 g ai/ha) | Plant response rating, Pigweed (redroot pigweed; Postemergence, 125 g ai/ha)

CCCc1cc[n+]([O-])c(S(=O)(=O)Cc2c(C(F)(F)F)nn(C)c2OC(F)F)c1 [Compound 117]
10: Velvetleaf plant response rating (velvetleaf; [2])
70: Plant response rating, Foxtail, Giant (giant foxtail; Postemergence, 125 g ai/ha) | Wheat plant response rating (wheat; [3])
90: Barnyardgrass plant response rating (barnyardgrass; [3]) | Crabgrass, Large plant response rating (crabgrass; [3]) | Foxtail, Giant plant response rating (giant foxtail; [2]) | Foxtail, Giant plant response rating (giant foxtail; [3]) | Morningglory plant response rating (morningglory; [1]) | Morningglory plant response rating (morningglory; [3]) | Velvetleaf plant response rating (velvetleaf; [3])
50: Plant response rating, Crabgrass, Large (crabgrass; Postemergence, 125 g ai/ha) | Plant response rating, Velvetleaf (velvetleaf; Postemergence, 125 g ai/ha) | Wheat plant response rating (wheat; [1])
40: Plant response rating, Barnyardgrass (barnyardgrass; Postemergence, 125 g ai/ha) | Plant response rating, Morningglory (morningglory; Postemergence, 125 g ai/ha) | Plant response rating, Wheat (wheat; Postemergence, 125 g ai/ha) | Corn plant response rating (corn; [1])
60: Plant response rating, Pigweed (redroot pigweed; Postemergence, 125 g ai/ha) | Velvetleaf plant response rating (velvetleaf; [1]) | Corn plant response rating (corn; [3])
20: Barnyardgrass plant response rating (barnyardgrass; [2]) | Corn plant response rating (corn; [2])
80: Barnyardgrass plant response rating (barnyardgrass; [1]) | Crabgrass, Large plant response rating (crabgrass; [1]) | Crabgrass, Large plant response rating (crabgrass; [2]) | Foxtail, Giant plant response rating (giant foxtail; [1]) | Morningglory plant response rating (morningglory; [2]) | Pigweed plant response rating (redroot pigweed; [1])
0: Plant response rating, Corn (corn; Postemergence, 125 g ai/ha)
100: Pigweed plant response rating (redroot pigweed; [2]) | Pigweed plant response rating (redroot pigweed; [3])
30: Wheat plant response rating (wheat; [2])

Cn1nc(C(F)(F)F)c(C[S+]([O-])c2cc(C3CC3)cc[n+]2[O-])c1OC(F)F (stereo not drawn) [Compound 120]
100: Barnyardgrass plant response rating (barnyardgrass; [3]) | Foxtail, Giant plant response rating (giant foxtail; [2]) | Foxtail, Giant plant response rating (giant foxtail; [3]) | Pigweed plant response rating (redroot pigweed; [2]) | Pigweed plant response rating (redroot pigweed; [3]) | Wheat plant response rating (wheat; [3])
60: Plant response rating, Barnyardgrass (barnyardgrass; Postemergence, 125 g ai/ha) | Plant response rating, Pigweed (redroot pigweed; Postemergence, 125 g ai/ha) | Plant response rating, Velvetleaf (velvetleaf; Postemergence, 125 g ai/ha) | Velvetleaf plant response rating (velvetleaf; [2])
50: Plant response rating, Crabgrass, Large (crabgrass; Postemergence, 125 g ai/ha) | Plant response rating, Morningglory (morningglory; Postemergence, 125 g ai/ha) | Wheat plant response rating (wheat; [1]) | Wheat plant response rating (wheat; [2])
40: Plant response rating, Wheat (wheat; Postemergence, 125 g ai/ha)
70: Barnyardgrass plant response rating (barnyardgrass; [1]) | Corn plant response rating (corn; [1])
80: Barnyardgrass plant response rating (barnyardgrass; [2]) | Crabgrass, Large plant response rating (crabgrass; [1]) | Plant response rating, Foxtail, Giant (giant foxtail; Postemergence, 125 g ai/ha) | Morningglory plant response rating (morningglory; [1]) | Morningglory plant response rating (morningglory; [2]) | Pigweed plant response rating (redroot pigweed; [1]) | Velvetleaf plant response rating (velvetleaf; [1]) | Velvetleaf plant response rating (velvetleaf; [3]) | Corn plant response rating (corn; [2])
90: Crabgrass, Large plant response rating (crabgrass; [2]) | Crabgrass, Large plant response rating (crabgrass; [3]) | Foxtail, Giant plant response rating (giant foxtail; [1]) | Morningglory plant response rating (morningglory; [3]) | Corn plant response rating (corn; [3])
30: Plant response rating, Corn (corn; Postemergence, 125 g ai/ha)

CC(C)c1cc[n+]([O-])c(S(=O)(=O)Cc2c(C(F)(F)F)nn(C)c2OCC(F)(F)F)c1 [Compound 111, 4-(1-methylethyl)-2-[[[1-methyl-5-(2,2,2-trifluoroethoxy)-3-trifluoromethyl-1H-pyrazol-4-yl]methyl]sulfonyl]pyridine 1-oxide]
100: Barnyardgrass plant response rating (barnyardgrass; [3]) | Foxtail, Giant plant response rating (giant foxtail; [3]) | Morningglory plant response rating (morningglory; [3]) | Pigweed plant response rating (redroot pigweed; [3]) | Velvetleaf plant response rating (velvetleaf; [3])
20: Plant response rating, Morningglory (morningglory; Postemergence, 125 g ai/ha)
40: Plant response rating, Crabgrass, Large (crabgrass; Postemergence, 125 g ai/ha) | Corn plant response rating (corn; [1])
80: Barnyardgrass plant response rating (barnyardgrass; [2]) | Foxtail, Giant plant response rating (giant foxtail; [1]) | Morningglory plant response rating (morningglory; [2]) | Wheat plant response rating (wheat; [3])
50: Plant response rating, Barnyardgrass (barnyardgrass; Postemergence, 125 g ai/ha) | Pigweed plant response rating (redroot pigweed; [2]) | Plant response rating, Velvetleaf (velvetleaf; Postemergence, 125 g ai/ha) | Plant response rating, Wheat (wheat; Postemergence, 125 g ai/ha) | Wheat plant response rating (wheat; [2]) | Corn plant response rating (corn; [3])
90: Crabgrass, Large plant response rating (crabgrass; [3]) | Foxtail, Giant plant response rating (giant foxtail; [2])
0: Plant response rating, Corn (corn; Postemergence, 125 g ai/ha) | Corn plant response rating (corn; [2])
60: Crabgrass, Large plant response rating (crabgrass; [2]) | Plant response rating, Foxtail, Giant (giant foxtail; Postemergence, 125 g ai/ha) | Morningglory plant response rating (morningglory; [1]) | Plant response rating, Pigweed (redroot pigweed; Postemergence, 125 g ai/ha) | Pigweed plant response rating (redroot pigweed; [1]) | Velvetleaf plant response rating (velvetleaf; [1]) | Velvetleaf plant response rating (velvetleaf; [2]) | Wheat plant response rating (wheat; [1])
70: Barnyardgrass plant response rating (barnyardgrass; [1]) | Crabgrass, Large plant response rating (crabgrass; [1])
